Measurements published in the OligoGym collection.
Only the 19 paired bases of each siRNA are shown; overhangs and chemistry are not given here.

These substances were tested against firefly luciferase (assay: five studies, different assays). Settings: siRNA.
Also: test concentration or dose not given here.

| Substance | target inhibition [%] |
| --- | --- |
| sense GUUGUGUUUGUGGACGAAG / antisense CUUCGUCCACAAACACAAC | 90.1 |
| sense CCGCCGCCGUUGUUGUUUU / antisense AAAACAACAACGGCGGCGG | 60.8 |
| sense ACGCCAAAAACAUAAAGAA / antisense UUCUUUAUGUUUUUGGCGU | 94.9 |
| sense ACGUCGCCAGUCAAGUAAC / antisense GUUACUUGACUGGCGACGU | 84.1 |
| sense GAUAUGGGCUGAAUACAAA / antisense UUUGUAUUCAGCCCAUAUC | 91.9 |
| sense AACAUAAAGAAAGGCCCGG / antisense CCGGGCCUUUCUUUAUGUU | 7.6 |
| sense CGACGCAAGAAAAAUCAGA / antisense UCUGAUUUUUCUUGCGUCG | 95.9 |
| sense AGACGAUGACGGAAAAAGA / antisense UCUUUUUCCGUCAUCGUCU | 93.1 |
| sense CAACCGCGAAAAAGUUGCG / antisense CGCAACUUUUUCGCGGUUG | -1.3 |
| sense CCGGUUAUGUAAACAAUCC / antisense GGAUUGUUUACAUAACCGG | 41.6 |
| sense GUGUUGGGCGCGUUAUUUA / antisense UAAAUAACGCGCCCAACAC | 91.9 |
| sense AAGGCCCGGCGCCAUUCUA / antisense UAGAAUGGCGCCGGGCCUU | 23 |
| sense AAGUACCGAAAGGUCUUAC / antisense GUAAGACCUUUCGGUACUU | 64.3 |
| sense UGGAAGAUGGAACCGCUGG / antisense CCAGCGGUUCCAUCUUCCA | 16.6 |
| sense GCCGCCGUUGUUGUUUUGG / antisense CCAAAACAACAACGGCGGC | 13.8 |
| sense GUAACAACCGCGAAAAAGU / antisense ACUUUUUCGCGGUUGUUAC | 85.5 |
| sense CUUCCCGCCGCCGUUGUUG / antisense CAACAACGGCGGCGGGAAG | 47.2 |
| sense CCAGUCAAGUAACAACCGC / antisense GCGGUUGUUACUUGACUGG | 66.1 |
| sense ACGGAAAGACGAUGACGGA / antisense UCCGUCAUCGUCUUUCCGU | 73.8 |
| sense CUUACCGGAAAACUCGACG / antisense CGUCGAGUUUUCCGGUAAG | 94.3 |
| sense UUGUUUUGGAGCACGGAAA / antisense UUUCCGUGCUCCAAAACAA | 89.2 |
| sense AGGAGUUGUGUUUGUGGAC / antisense GUCCACAAACACAACUCCU | 87.5 |
| sense AUCCUCAUAAAGGCCAAGA / antisense UCUUGGCCUUUAUGAGGAU | -12.8 |

| Substance | target inhibition [%] |
| --- | --- |
| sense CCUUCAGGAUUACAAGAUU / antisense AAUCUUGUAAUCCUGAAGG | 98.9 |
| sense UGUGGACGAAGUACCGAAA / antisense UUUCGGUACUUCGUCCACA | 77.8 |
| sense AUUAUCAUGGAUUCUAAAA / antisense UUUUAGAAUCCAUGAUAAU | 55.5 |
| sense GGAUGGAUGGCUACAUUCU / antisense AGAAUGUAGCCAUCCAUCC | 97.4 |
| sense AGAUCGUGGAUUACGUCGC / antisense GCGACGUAAUCCACGAUCU | 67 |
| sense GGAAAACUCGACGCAAGAA / antisense UUCUUGCGUCGAGUUUUCC | 92.7 |
| sense UGAAGUCUCUGAUUAAGUA / antisense UACUUAAUCAGAGACUUCA | 91.9 |
| sense GUCGCUCUGCCUCAUAGAA / antisense UUCUAUGAGGCAGAGCGAC | 69.9 |
| sense UCAAGUAACAACCGCGAAA / antisense UUUCGCGGUUGUUACUUGA | 88.5 |
| sense GGUGAACUUCCCGCCGCCG / antisense CGGCGGCGGGAAGUUCACC | 14.5 |
| sense GCAAGAAAAAUCAGAGAGA / antisense UCUCUCUGAUUUUUCUUGC | 95.1 |
| sense UGAACUUCCCGCCGCCGUU / antisense AACGGCGGCGGGAAGUUCA | 63.3 |
| sense GCGGAGGAGUUGUGUUUGU / antisense ACAAACACAACUCCUCCGC | 92.3 |
| sense AGAUCCUCAUAAAGGCCAA / antisense UUGGCCUUUAUGAGGAUCU | 78.2 |
| sense GUUUUGGAGCACGGAAAGA / antisense UCUUUCCGUGCUCCAAAAC | -27.8 |
| sense CGAAAAAGUUGCGCGGAGG / antisense CCUCCGCGCAACUUUUUCG | 78.6 |
| sense AGAGAUCGUGGAUUACGUC / antisense GACGUAAUCCACGAUCUCU | 82.8 |
| sense CCUCCCGGUUUUAAUGAAU / antisense AUUCAUUAAAACCGGGAGG | 73.5 |
| sense GACGAAGUACCGAAAGGUC / antisense GACCUUUCGGUACUUCGUC | 89.7 |
| sense GUCGCCAGUCAAGUAACAA / antisense UUGUUACUUGACUGGCGAC | 44.9 |
| sense CAUUCUAUCCGCUGGAAGA / antisense UCUUCCAGCGGAUAGAAUG | 93.2 |
| sense AACUUCCCGCCGCCGUUGU / antisense ACAACGGCGGCGGGAAGUU | 18.4 |
| sense CGCGAAAAAGUUGCGCGGA / antisense UCCGCGCAACUUUUUCGCG | 32.1 |

| Substance | target inhibition [%] |
| --- | --- |
| sense ACGAUGACGGAAAAAGAGA / antisense UCUCUUUUUCCGUCAUCGU | 80.7 |
| sense UGUUUGUGGACGAAGUACC / antisense GGUACUUCGUCCACAAACA | 35.9 |
| sense AAAACAUAAAGAAAGGCCC / antisense GGGCCUUUCUUUAUGUUUU | 11.1 |
| sense AAAAAGAGAUCGUGGAUUA / antisense UAAUCCACGAUCUCUUUUU | 91.2 |
| sense CGCCGUUGUUGUUUUGGAG / antisense CUCCAAAACAACAACGGCG | 74.8 |
| sense AAGUAACAACCGCGAAAAA / antisense UUUUUCGCGGUUGUUACUU | 76.6 |
| sense CCAAUCAUCCAAAAAAUUA / antisense UAAUUUUUUGGAUGAUUGG | 97.5 |
| sense GAUUUCGAGUCGUCUUAAU / antisense AUUAAGACGACUCGAAAUC | 98.9 |
| sense AUGGAACCGCUGGAGAGCA / antisense UGCUCUCCAGCGGUUCCAU | 35.4 |
| sense AAUCAGAGAGAUCCUCAUA / antisense UAUGAGGAUCUCUCUGAUU | 91.7 |
| sense UGUGUUUGUGGACGAAGUA / antisense UACUUCGUCCACAAACACA | 90.8 |
| sense ACGCAAGAAAAAUCAGAGA / antisense UCUCUGAUUUUUCUUGCGU | 87.6 |
| sense GGUAAAGUUGUUCCAUUUU / antisense AAAAUGGAACAACUUUACC | 94.5 |
| sense GGAAAGACGAUGACGGAAA / antisense UUUCCGUCAUCGUCUUUCC | 87.6 |
| sense GACGCCAAAAACAUAAAGA / antisense UCUUUAUGUUUUUGGCGUC | 85.8 |
| sense GCGCGGAGGAGUUGUGUUU / antisense AAACACAACUCCUCCGCGC | 86.8 |
| sense CGAAAGGUCUUACCGGAAA / antisense UUUCCGGUAAGACCUUUCG | 95 |
| sense AGAGAGAUCCUCAUAAAGG / antisense CCUUUAUGAGGAUCUCUCU | 92.6 |
| sense GAGCACGGAAAGACGAUGA / antisense UCAUCGUCUUUCCGUGCUC | 20.3 |
| sense UUGCGCGGAGGAGUUGUGU / antisense ACACAACUCCUCCGCGCAA | 24.9 |
| sense CGCCGCCGUUGUUGUUUUG / antisense CAAAACAACAACGGCGGCG | 51.3 |
| sense CCGGAUACUGCGAUUUUAA / antisense UUAAAAUCGCAGUAUCCGG | 96.3 |
| sense CAAAUACGAUUUAUCUAAU / antisense AUUAGAUAAAUCGUAUUUG | 87.8 |

| Substance | target inhibition [%] |
| --- | --- |
| sense CCGGAAAACUCGACGCAAG / antisense CUUGCGUCGAGUUUUCCGG | 94.9 |
| sense GAAAAAUCAGAGAGAUCCU / antisense AGGAUCUCUCUGAUUUUUC | 86.8 |
| sense GGGCGCGGUCGGUAAAGUU / antisense AACUUUACCGACCGCGCCC | 93.6 |
| sense UGGAUUACGUCGCCAGUCA / antisense UGACUGGCGACGUAAUCCA | 93.6 |
| sense UCCGGAAGCGACCAACGCC / antisense GGCGUUGGUCGCUUCCGGA | 89.7 |
| sense UGUUGUUUUGGAGCACGGA / antisense UCCGUGCUCCAAAACAACA | 82.5 |
| sense ACCGCGAAAAAGUUGCGCG / antisense CGCGCAACUUUUUCGCGGU | 29.9 |
| sense GGAAAAAGAGAUCGUGGAU / antisense AUCCACGAUCUCUUUUUCC | 91.3 |
| sense UUCUGAUUACACCCGAGGG / antisense CCCUCGGGUGUAAUCAGAA | 10.7 |
| sense GUCUUACCGGAAAACUCGA / antisense UCGAGUUUUCCGGUAAGAC | 61 |
| sense AUCGUGGAUUACGUCGCCA / antisense UGGCGACGUAAUCCACGAU | 44.2 |
| sense UGUAAACAAUCCGGAAGCG / antisense CGCUUCCGGAUUGUUUACA | 9.91 |
| sense AUCCGCUGGAAGAUGGAAC / antisense GUUCCAUCUUCCAGCGGAU | 23.4 |
| sense AACAACCGCGAAAAAGUUG / antisense CAACUUUUUCGCGGUUGUU | -5.7 |
| sense ACCGAAAGGUCUUACCGGA / antisense UCCGGUAAGACCUUUCGGU | 94.7 |
| sense AAGAAAAAUCAGAGAGAUC / antisense GAUCUCUCUGAUUUUUCUU | 68.1 |
| sense GAUGACGGAAAAAGAGAUC / antisense GAUCUCUUUUUCCGUCAUC | 47.6 |
| sense CGUGGAUUACGUCGCCAGU / antisense ACUGGCGACGUAAUCCACG | 87.1 |
| sense AGUUGCAGUUGCGCCCGCG / antisense CGCGGGCGCAACUGCAACU | 37.3 |
| sense CGCCAGUCAAGUAACAACC / antisense GGUUGUUACUUGACUGGCG | 79.5 |
